What was measured:
Assay type in all cases: in vivo
[1] = system: cotton aphids (Aphis gossypii); test: Test Example 2: spray on cucumber infested with cotton aphids; conditions: topical, 144 h, 500 ppm active ingredient, 20 ml/cup spray on cucumber, about 30 aphids, counted six days after spraying, read-out: controlling value
Procedure: Then, it will be shown by Test Examples that the present compound is effective in controlling harmful arthropods. In the Test Example, controlling values were calculated by the following equation: Controlling value(%)={1−(Cb×Tai)/(Cai×Tb)}×100 wherein Cb: the number of worms in a non-treated section before treatment Cai: the number of worms in a non-treated section on observation Tb: the number of worms in a treated-section before treatment Tai: the number of worms in a treated-section on observation. Preparations of the test compounds obtained in Formulation Example 5 were diluted with water so that the active ingredient concentration became 500 ppm to prepare test spray solutions. At the same time, cucumber was planted in a polyethylene cup, and was grown until the first true leaf was developed. About 30 cotton aphids were put on the cucumber. One day after, the test spray solution as described above was sprayed in an amount of 20 ml/cup on the cucumber. Six days after spraying, the number of cotton aphids (Aphis gossypii) was counted, and a controlling value was calculated by the above equation.

[2] = system: Adoxophyes orana fasciata; test: Test Example 4: spray on apple seedling, first-instar larvae of Adoxophyes orana fasciata; conditions: 168 h, 500 ppm active ingredient, 20 ml spray on apple seedling, about 30 first-instar larvae, counted seven days after spraying, read-out: controlling value
Procedure: Then, it will be shown by Test Examples that the present compound is effective in controlling harmful arthropods. In the Test Example, controlling values were calculated by the following equation: Controlling value(%)={1−(Cb×Tai)/(Cai×Tb)}×100 wherein Cb: the number of worms in a non-treated section before treatment Cai: the number of worms in a non-treated section on observation Tb: the number of worms in a treated-section before treatment Tai: the number of worms in a treated-section on observation. Preparations of the test compounds obtained in Formulation Example 5 were diluted with water so that the active ingredient concentration became 500 ppm to prepare test spray solutions. At the same time, 20 ml of the test spray solution as described above was sprayed to an apple seedling (28 day-old seeding, tree height: about 15 cm) planted in a plastic cup. The apple seedling was air-dried to such an extent that the spray solution sprayed on the apple seedling was dried. About 30 first-instar larvae of Adoxophyes orana fasciata were released. Seven days after spraying, the number of worms surviving on the apple seedling was counted, and a controlling value was calculated by the above equation.

[3] = system: diamondback moths (Plutella xylostella); test: Test Example 1: spray on cabbage, third-instar larvae of diamondback moths; conditions: 20 ml/cup spray on cabbage, 10 third-instar larvae, counted after 5 days; for pest or weed control at 500 ppm: Plutella xylostella, 120 h, 500 ppm active ingredient, read-out: controlling value
Procedure: Then, it will be shown by Test Examples that the present compound is effective in controlling harmful arthropods. In the Test Example, controlling values were calculated by the following equation: Controlling value(%)={1−(Cb×Tai)/(Cai×Tb)}×100 wherein Cb: the number of worms in a non-treated section before treatment Cai: the number of worms in a non-treated section on observation Tb: the number of worms in a treated-section before treatment Tai: the number of worms in a treated-section on observation. Preparations of the test compounds obtained in Formulation Example 5 were diluted with water so that the active ingredient concentration became 500 ppm, to prepare test spray solutions. At the same time, cabbage was planted in a polyethylene cup, and grown until the third true leaf or the fourth true leaf was developed. The test spray solution as described above was sprayed in an amount of 20 ml/cup on the cabbage. After the spray solution on the cabbage was dried, 10 third-instar larvae of diamondback moths (Plutella xylostella) were put on the cabbage. After 5 days, the number of diamondback moths was counted, and the controlling value was calculated by the above equation. Furthermore, preparations of the test compound (7) and a comparative compound of the formula [drawing 523] obtained in a formulation according to Formulation Example 5 were diluted with water so that the active ingredient concentration became 0.2 ppm, to prepare test spray solution. At the same time, cabbage was planted in a polyethylene cup, and grown until the third true leaf or the fourth true leaf was developed. The test spray solution as described above was sprayed in an amount of 20 ml/cup on the cabbage. After the spray solution on the cabbage was dried, 10 third-instar larvae of diamondback moths (Plutella xylostella) were put on the cabbage. After 5 days, the number of diamondback moths was counted, and the controlling value was calculated by the above equation.

[4] = system: Spodoptera litura; test: Test Example 3: spray on cabbage, fourth-instar larvae of Spodoptera litura; conditions: 120 h, 500 ppm active ingredient, 20 ml/cup spray on cabbage, 10 fourth-instar larvae, counted after 5 days, read-out: controlling value
Procedure: Then, it will be shown by Test Examples that the present compound is effective in controlling harmful arthropods. In the Test Example, controlling values were calculated by the following equation: Controlling value(%)={1−(Cb×Tai)/(Cai×Tb)}×100 wherein Cb: the number of worms in a non-treated section before treatment Cai: the number of worms in a non-treated section on observation Tb: the number of worms in a treated-section before treatment Tai: the number of worms in a treated-section on observation. Preparations of the test compounds obtained in Formulation Example 5 were diluted with water so that the active ingredient concentration became 500 ppm to prepare test spray solutions. At the same time, cabbage was planted in a polyethylene cup, and grown until the third true leaf or the fourth true leaf was developed. The test spray solution as described above was sprayed in an amount of 20 ml/cup on the cabbage. After the spray solution sprayed on the cabbage was dried, 10 fourth-instar larvae of Spodoptera litura were put on the cabbage. After 5 days, the number of Spodoptera litura surviving on the cabbage leaves was counted, and a controlling value was calculated by the above equation.

SMILES	pest or weed control at 500 ppm [1]	pest or weed control at 500 ppm [2]	pest or weed control at 500 ppm [3]	pest or weed control at 500 ppm [4]	control value ([3]; 0.2 ppm active ingredient)
COC(=O)NNC(=O)c1cc(Br)nc(Br)c1NC(=O)c1cc(Br)nn1-c1ncccc1Cl [Compound 5, N′-(2,6-dibromo-3-{[5-bromo-2-(3-chloro-pyridin-2-yl)-2H-pyrazole-3-carbonyl]-amino}-pyridine-4-carbonyl)-hydrazinecarboxylic acid methyl ester]	≥ 90%	≥ 90%	≥ 90%	≥ 80%	
COC(=O)NNC(=O)c1nc(Cl)cc(C)c1NC(=O)c1cc(Br)nn1-c1ncccc1Cl [Compound 7, N′-(3-{[5-bromo-2-(3-chloro-pyridin-2-yl)-2H-pyrazole-3-carbonyl]-amino}-6-chloro-4-methyl-pyridine-2-carbonyl)-hydrazinecarboxylic acid methyl ester]	≥ 90%	≥ 90%	≥ 90%	≥ 80%	more than 80%
